Test results published in ChEMBL document CHEMBL4052689, “Discovery and optimization of 3-(4-aryl/heteroarylsulfonyl)piperazin-1-yl)-6-(piperidin-1-yl)pyridazines as novel, CNS penetrant pan-muscarinic antagonists” (Bioorg Med Chem Lett, 2017).
Active and inactive are the calls of the source. The calls are words filed in the database; no cut-off is given here.

Legend:
[1] = target: T1, Muscarinic acetylcholine receptor M4 (Homo sapiens) (UniProt P08173); test: Antagonist activity at human recombinant muscarinic M4 receptor expressed in CHO cells co-transfected with Gqi5 assessed as acetylcholine-induced response in presence of EC80 acetylcholine by calcium mobilization assay relative to untreated control; type: functional, cell-based; set-up: scale not given: the % may be the effect or the level left
T1 sequence (whole entry): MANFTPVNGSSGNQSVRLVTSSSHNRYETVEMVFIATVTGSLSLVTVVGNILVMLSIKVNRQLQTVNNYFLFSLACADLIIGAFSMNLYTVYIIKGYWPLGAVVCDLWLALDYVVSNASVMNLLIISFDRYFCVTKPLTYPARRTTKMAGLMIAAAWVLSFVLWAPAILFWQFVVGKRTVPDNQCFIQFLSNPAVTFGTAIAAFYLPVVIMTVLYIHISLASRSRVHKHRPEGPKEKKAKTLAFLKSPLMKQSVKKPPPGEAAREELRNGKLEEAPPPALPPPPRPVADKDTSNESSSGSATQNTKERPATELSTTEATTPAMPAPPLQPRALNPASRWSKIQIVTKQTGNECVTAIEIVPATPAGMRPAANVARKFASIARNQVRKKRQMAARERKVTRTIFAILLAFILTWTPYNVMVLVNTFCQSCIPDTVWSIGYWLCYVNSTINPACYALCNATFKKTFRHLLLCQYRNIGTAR

[2] = target: Muscarinic acetylcholine receptor M2 (Rattus norvegicus) (UniProt P10980); test: (§1) Antagonist activity at rat muscarinic M2 receptor by calcium mobilization assay; type: functional
Muscarinic acetylcholine receptor M2 (Rattus norvegicus), sequence (P10980 whole entry): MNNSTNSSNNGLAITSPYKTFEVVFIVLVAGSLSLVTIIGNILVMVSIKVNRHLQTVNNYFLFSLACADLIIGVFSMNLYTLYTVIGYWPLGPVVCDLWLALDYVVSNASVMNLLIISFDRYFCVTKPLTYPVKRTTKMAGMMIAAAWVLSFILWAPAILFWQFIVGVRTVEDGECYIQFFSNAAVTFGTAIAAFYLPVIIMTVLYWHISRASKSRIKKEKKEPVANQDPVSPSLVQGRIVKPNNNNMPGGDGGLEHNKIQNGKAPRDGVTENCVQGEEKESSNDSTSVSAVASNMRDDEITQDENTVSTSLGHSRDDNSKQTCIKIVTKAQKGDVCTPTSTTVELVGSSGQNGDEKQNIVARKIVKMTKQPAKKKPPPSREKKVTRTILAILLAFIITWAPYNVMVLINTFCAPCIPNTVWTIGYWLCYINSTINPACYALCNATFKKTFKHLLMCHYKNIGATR

[3] = target: Muscarinic acetylcholine receptor M2 (Homo sapiens, UniProt P08172); test: Antagonist activity at human recombinant muscarinic M2 receptor expressed in CHO cells co-transfected with Gqi5 in presence of EC80 acetylcholine by calcium mobilization assay; type: functional, cell-based
Muscarinic acetylcholine receptor M2 (Homo sapiens, UniProt P08172), sequence (P08172 whole entry): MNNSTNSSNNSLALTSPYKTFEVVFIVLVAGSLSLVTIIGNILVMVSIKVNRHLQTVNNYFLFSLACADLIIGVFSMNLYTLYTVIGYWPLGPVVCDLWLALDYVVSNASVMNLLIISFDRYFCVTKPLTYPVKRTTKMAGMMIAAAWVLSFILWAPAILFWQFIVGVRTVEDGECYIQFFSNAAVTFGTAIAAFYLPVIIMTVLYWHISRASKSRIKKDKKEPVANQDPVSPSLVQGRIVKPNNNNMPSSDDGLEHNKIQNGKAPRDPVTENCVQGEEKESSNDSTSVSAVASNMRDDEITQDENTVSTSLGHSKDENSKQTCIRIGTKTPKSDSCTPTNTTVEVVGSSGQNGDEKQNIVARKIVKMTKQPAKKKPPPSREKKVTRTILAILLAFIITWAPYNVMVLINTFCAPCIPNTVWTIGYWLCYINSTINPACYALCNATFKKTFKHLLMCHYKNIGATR

[4] = target: Muscarinic acetylcholine receptor M1 (Homo sapiens) (UniProt P11229); test: Antagonist activity at human recombinant muscarinic M1 receptor expressed in CHO cells co-transfected with Gqi5 assessed as acetylcholine-induced response in presence of EC80 acetylcholine by calcium mobilization assay relative to untreated control; type: functional, cell-based; set-up: scale not given: the % may be the effect or the level left
[5] = target: Muscarinic acetylcholine receptor M5 (Homo sapiens) (UniProt P08912); test: Antagonist activity at human recombinant muscarinic M5 receptor expressed in CHO cells co-transfected with Gqi5 assessed as acetylcholine-induced response in presence of EC80 acetylcholine by calcium mobilization assay relative to untreated control; type: functional, cell-based; set-up: scale not given: the % may be the effect or the level left
Muscarinic acetylcholine receptor M5 (Homo sapiens), sequence (P08912 whole entry): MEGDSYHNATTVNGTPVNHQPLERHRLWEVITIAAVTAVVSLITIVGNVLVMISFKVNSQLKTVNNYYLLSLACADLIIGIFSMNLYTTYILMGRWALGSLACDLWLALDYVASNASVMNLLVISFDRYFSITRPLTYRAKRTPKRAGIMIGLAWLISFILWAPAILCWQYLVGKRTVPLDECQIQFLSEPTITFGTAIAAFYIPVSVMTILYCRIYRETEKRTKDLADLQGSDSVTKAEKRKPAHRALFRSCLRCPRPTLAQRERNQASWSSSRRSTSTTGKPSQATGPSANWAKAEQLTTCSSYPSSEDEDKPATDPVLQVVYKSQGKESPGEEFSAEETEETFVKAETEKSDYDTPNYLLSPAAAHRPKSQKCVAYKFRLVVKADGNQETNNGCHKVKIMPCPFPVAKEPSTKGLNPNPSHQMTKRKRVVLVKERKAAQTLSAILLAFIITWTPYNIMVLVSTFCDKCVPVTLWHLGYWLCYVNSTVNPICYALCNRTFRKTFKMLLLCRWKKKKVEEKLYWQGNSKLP

[6] = target: Muscarinic acetylcholine receptor M4 (Rattus norvegicus) (UniProt P08485); test: (§2) Antagonist activity at rat muscarinic M4 receptor by calcium mobilization assay; type: functional
Muscarinic acetylcholine receptor M4 (Rattus norvegicus), sequence (P08485 whole entry): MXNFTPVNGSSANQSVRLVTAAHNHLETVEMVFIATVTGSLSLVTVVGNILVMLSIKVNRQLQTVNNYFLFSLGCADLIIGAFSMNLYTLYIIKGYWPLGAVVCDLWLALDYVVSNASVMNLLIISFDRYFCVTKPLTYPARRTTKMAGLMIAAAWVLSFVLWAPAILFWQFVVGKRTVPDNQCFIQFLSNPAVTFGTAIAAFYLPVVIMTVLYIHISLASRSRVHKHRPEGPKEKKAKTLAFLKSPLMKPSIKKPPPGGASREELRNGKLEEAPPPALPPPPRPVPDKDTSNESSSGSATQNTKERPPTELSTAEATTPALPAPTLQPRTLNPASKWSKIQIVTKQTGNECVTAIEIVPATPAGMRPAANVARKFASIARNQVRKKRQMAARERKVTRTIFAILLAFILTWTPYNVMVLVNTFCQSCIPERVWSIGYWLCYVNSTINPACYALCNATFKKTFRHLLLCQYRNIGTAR

[7] = target: Muscarinic acetylcholine receptor M5 (Rattus norvegicus) (UniProt P08911); test: Antagonist activity at rat muscarinic M5 receptor assessed as acetylcholine-induced response by calcium mobilization assay; type: functional; set-up: Activity: scale not given: the % may be the effect or the level left
Muscarinic acetylcholine receptor M5 (Rattus norvegicus), sequence (P08911 whole entry): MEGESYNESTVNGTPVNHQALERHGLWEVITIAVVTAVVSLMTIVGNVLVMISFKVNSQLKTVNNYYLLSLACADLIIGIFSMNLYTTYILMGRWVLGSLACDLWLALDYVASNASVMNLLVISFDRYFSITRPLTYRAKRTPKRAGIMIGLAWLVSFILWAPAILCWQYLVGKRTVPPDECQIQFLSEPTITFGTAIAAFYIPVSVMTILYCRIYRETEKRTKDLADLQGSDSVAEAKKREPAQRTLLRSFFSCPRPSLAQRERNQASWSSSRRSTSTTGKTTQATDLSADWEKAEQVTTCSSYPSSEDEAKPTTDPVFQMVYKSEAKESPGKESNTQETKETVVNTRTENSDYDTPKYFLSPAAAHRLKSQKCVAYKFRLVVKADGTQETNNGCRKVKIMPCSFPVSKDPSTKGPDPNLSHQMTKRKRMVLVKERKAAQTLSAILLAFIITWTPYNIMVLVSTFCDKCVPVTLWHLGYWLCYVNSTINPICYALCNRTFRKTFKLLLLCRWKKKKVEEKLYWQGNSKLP

[8] = target: Muscarinic acetylcholine receptor M1 (Rattus norvegicus) (UniProt P08482); test: (§3) Antagonist activity at rat muscarinic M1 receptor by calcium mobilization assay; type: functional
[9] = target: T2, Muscarinic acetylcholine receptor M4 (Homo sapiens, UniProt P08173); test: Antagonist activity at human recombinant muscarinic M4 receptor expressed in CHO cells co-transfected with Gqi5 in presence of EC80 acetylcholine by calcium mobilization assay; type: functional, cell-based
T2 sequence (P08173 whole entry): T1 sequence (whole entry)

Brain = test: Protein binding in rat brain homogenate assessed as unbound fraction; type: ADME, tissue-based
[10] = target: Muscarinic acetylcholine receptor M2 (Homo sapiens) (UniProt P08172); test: Antagonist activity at human recombinant muscarinic M2 receptor expressed in CHO cells co-transfected with Gqi5 assessed as acetylcholine-induced response in presence of EC80 acetylcholine by calcium mobilization assay relative to untreated control; type: functional, cell-based; set-up: scale not given: the % may be the effect or the level left
Muscarinic acetylcholine receptor M2 (Homo sapiens), sequence (P08172 whole entry): as the sequence (P08172 whole entry) above

[11] = target: T3, Muscarinic acetylcholine receptor M3 (Homo sapiens, UniProt P20309); test: Antagonist activity at human recombinant muscarinic M3 receptor expressed in CHO cells assessed as acetylcholine-induced response in presence of EC80 acetylcholine by calcium mobilization assay relative to untreated control; set-up: scale not given: the % may be the effect or the level left
Plasma [12] = test: Protein binding in human plasma assessed as unbound fraction; type: ADME, cell-free
Plasma [13] = test: Protein binding in rat plasma assessed as unbound fraction; type: ADME, cell-free
[14] = Unbound brain-to-plasma concentration ratio in rat dosed as cassette dosing; type: ADME, organism-based
[15] = target: Muscarinic acetylcholine receptor M5 (Homo sapiens, UniProt P08912); test: Antagonist activity at human recombinant muscarinic M5 receptor expressed in CHO cells co-transfected with Gqi5 in presence of EC80 acetylcholine by calcium mobilization assay; type: functional, cell-based
Muscarinic acetylcholine receptor M5 (Homo sapiens, UniProt P08912), sequence (P08912 whole entry): as the sequence (P08912 whole entry) above

[16] = Brain to plasma permeability coefficient in rat dosed as cassette dosing; type: ADME, organism-based
[17] = target: Muscarinic acetylcholine receptor M3 (Rattus norvegicus) (UniProt P08483); test: (§4) Antagonist activity at rat muscarinic M3 receptor by calcium mobilization assay; type: functional
Muscarinic acetylcholine receptor M3 (Rattus norvegicus), sequence (P08483 whole entry, looked up): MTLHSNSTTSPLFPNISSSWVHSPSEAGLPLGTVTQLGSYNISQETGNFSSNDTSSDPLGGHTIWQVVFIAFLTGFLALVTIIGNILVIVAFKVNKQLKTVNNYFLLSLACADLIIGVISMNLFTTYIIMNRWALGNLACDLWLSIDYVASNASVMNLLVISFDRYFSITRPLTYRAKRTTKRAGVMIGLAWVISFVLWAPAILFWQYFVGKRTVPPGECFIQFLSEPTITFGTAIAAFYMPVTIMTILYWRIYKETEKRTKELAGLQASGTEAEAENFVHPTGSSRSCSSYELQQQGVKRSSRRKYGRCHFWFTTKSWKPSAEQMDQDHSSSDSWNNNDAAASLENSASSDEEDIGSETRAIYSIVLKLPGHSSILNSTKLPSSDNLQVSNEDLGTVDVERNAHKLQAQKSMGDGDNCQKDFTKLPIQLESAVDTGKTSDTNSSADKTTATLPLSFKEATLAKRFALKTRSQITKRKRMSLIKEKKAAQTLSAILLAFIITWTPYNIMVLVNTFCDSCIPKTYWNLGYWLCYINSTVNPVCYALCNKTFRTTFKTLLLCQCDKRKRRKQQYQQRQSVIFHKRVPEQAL

[18] = target: T3, Muscarinic acetylcholine receptor M3; test: Antagonist activity at human recombinant muscarinic M3 receptor expressed in CHO cells co-transfected with Gqi5 in presence of EC80 acetylcholine by calcium mobilization assay; type: functional, cell-based
Target sequence in this assay (P20309 whole entry): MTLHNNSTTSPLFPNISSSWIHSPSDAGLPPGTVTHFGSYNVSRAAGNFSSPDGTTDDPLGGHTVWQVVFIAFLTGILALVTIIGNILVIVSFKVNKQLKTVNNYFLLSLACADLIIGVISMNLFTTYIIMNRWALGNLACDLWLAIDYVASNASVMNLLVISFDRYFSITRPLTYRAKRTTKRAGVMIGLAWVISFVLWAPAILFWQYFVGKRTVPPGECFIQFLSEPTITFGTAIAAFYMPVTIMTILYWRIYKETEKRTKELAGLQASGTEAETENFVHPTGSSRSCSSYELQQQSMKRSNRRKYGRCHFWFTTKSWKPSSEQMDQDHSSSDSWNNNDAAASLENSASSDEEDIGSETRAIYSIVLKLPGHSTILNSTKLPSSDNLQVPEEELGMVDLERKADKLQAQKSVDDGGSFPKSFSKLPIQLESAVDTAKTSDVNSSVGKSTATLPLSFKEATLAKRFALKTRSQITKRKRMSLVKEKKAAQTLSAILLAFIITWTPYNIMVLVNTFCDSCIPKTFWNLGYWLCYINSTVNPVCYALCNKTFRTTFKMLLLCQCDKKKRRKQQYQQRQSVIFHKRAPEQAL

[19] = target: T2, Muscarinic acetylcholine receptor M4; test: Displacement of [3H]NMS from human recombinant muscarinic M4 receptor expressed in CHO cell membranes
[20] = target: Muscarinic acetylcholine receptor M1 (Homo sapiens, UniProt P11229); test: Antagonist activity at human recombinant muscarinic M1 receptor expressed in CHO cells co-transfected with Gqi5 in presence of EC80 acetylcholine by calcium mobilization assay; type: functional, cell-based
[21] = target: Muscarinic acetylcholine receptor M2 (Rattus norvegicus, UniProt P10980); test: as §1; type: functional
[22] = target: Muscarinic acetylcholine receptor M5 (Rattus norvegicus, UniProt P08911); test: Antagonist activity at rat muscarinic M5 receptor by calcium mobilization assay; type: functional
Liver [23] = test: Drug metabolism in human liver microsomes in absence of NADPH by UV and mass spectrometry; type: ADME, microsome
Homo sapiens [24] = species on record: Homo sapiens; test: Selectivity index, ratio of IC50 for human recombinant muscarinic M5 receptor to IC50 for human recombinant muscarinic M4 receptor
[25] = target: Muscarinic acetylcholine receptor M2 (Rattus norvegicus) (UniProt P10980); test: Antagonist activity at rat muscarinic M2 receptor assessed as acetylcholine-induced response by calcium mobilization assay; type: functional; set-up: scale not given: the % may be the effect or the level left
Liver [26] = test: Drug metabolism in human liver microsomes assessed as metabolite G formation in presence of NADPH by UV and mass spectrometry; type: ADME, microsome
[27] = target: Muscarinic acetylcholine receptor M3 (Rattus norvegicus) (UniProt P08483); test: Antagonist activity at rat muscarinic M3 receptor assessed as acetylcholine-induced response by calcium mobilization assay; type: functional; set-up: scale not given: the % may be the effect or the level left
Plasma [28] = test: Protein binding in rat plasma; type: ADME, cell-free
[29] = target: Muscarinic acetylcholine receptor M4 (Rattus norvegicus, UniProt P08485); test: as §2; type: functional
Liver [30] = test: Drug metabolism in rat liver microsomes assessed as metabolite F formation in presence of NADPH by UV and mass spectrometry; type: ADME, microsome
Plasma [31] = test: Protein binding in human plasma; type: ADME, cell-free
[32] = target: Muscarinic acetylcholine receptor M1 (Rattus norvegicus, UniProt P08482); test: as §3; type: functional
Liver [33] = test: Drug metabolism in human liver microsomes assessed as metabolite A formation in presence of NADPH by UV and mass spectrometry; type: ADME, microsome
Liver [34] = test: Drug metabolism in human liver microsomes assessed as metabolite B formation in presence of NADPH by UV and mass spectrometry; type: ADME, microsome
[35] = target: Muscarinic acetylcholine receptor M4 (Rattus norvegicus) (UniProt P08485); test: Antagonist activity at rat muscarinic M4 receptor assessed as acetylcholine-induced response by calcium mobilization assay; type: functional; set-up: scale not given: the % may be the effect or the level left
Homo sapiens [36] = species on record: Homo sapiens; test: Selectivity index, ratio of IC50 for human recombinant muscarinic M1 receptor to IC50 for human recombinant muscarinic M4 receptor
[37] = target: Muscarinic acetylcholine receptor M2 and M4 (Homo sapiens) (UniProt P08173+P08172); test: Selectivity index, ratio of IC50 for human recombinant muscarinic M2 receptor to IC50 for human recombinant muscarinic M4 receptor
Liver [38] = test: Drug metabolism in human liver microsomes assessed as metabolite F formation in presence of NADPH by UV and mass spectrometry; type: ADME, microsome
Homo sapiens [39] = species on record: Homo sapiens; test: Selectivity index, ratio of IC50 for human recombinant muscarinic M3 receptor to IC50 for human recombinant muscarinic M4 receptor
Liver [40] = test: Drug metabolism in human liver microsomes assessed as metabolite E formation in presence of NADPH by UV and mass spectrometry; type: ADME, microsome
Liver [41] = test: Drug metabolism in rat liver microsomes in absence of NADPH by UV and mass spectrometry; type: ADME, microsome
[42] = target: Muscarinic acetylcholine receptor M1 (Rattus norvegicus) (UniProt P08482); test: Antagonist activity at rat muscarinic M1 receptor assessed as acetylcholine-induced response by calcium mobilization assay; type: functional; set-up: scale not given: the % may be the effect or the level left
Liver [43] = test: Drug metabolism in human liver microsomes assessed as metabolite D formation in presence of NADPH by UV and mass spectrometry; type: ADME, microsome
[44] = target: Muscarinic acetylcholine receptor M3 (Rattus norvegicus, UniProt P08483); test: as §4; type: functional
Liver [45] = test: Drug metabolism in human liver microsomes assessed as metabolite H formation in presence of NADPH by UV and mass spectrometry; type: ADME, microsome
Liver [46] = test: Drug metabolism in human liver microsomes assessed as metabolite C formation in presence of NADPH by UV and mass spectrometry; type: ADME, microsome

Structure (SMILES): Cc1noc(C)c1S(=O)(=O)N1CCN(c2ccc(N3CCCC(C)(C)C3)nn2)CC1
- Activity [1]: 12%
- inhibition [2]: Active
- IC50 [3]: 352 nM
- Activity [4]: 11%
- Activity [5]: 43%
- inhibition [6]: Active
- inhibition [7]: Active
- inhibition [8]: Active
- IC50 ([9]; read-out: IC50): 120 nM
- IC50 ([9]; read-out: pIC50 (converted)): 110 nM
- Fu (Brain): 0.04
- Activity [10]: 17%
- Activity [11]: 55%
- Fu (Plasma [12]): 0.08
- Fu (Plasma [13]): 0.07
- K(p,uu,brain) [14]: 1.1
- IC50 [15]: 1030 nM
- Kp [16]: 2.1
- inhibition [17]: Active
- IC50 [18]: 782 nM
- Ki [19]: 7.78 nM
- IC50 [20]: 288 nM

Structure (SMILES): C[C@H]1CCCCN1c1ccc(N2CCN(S(=O)(=O)c3ccccc3Cl)CC2)nn1
- Activity [1]: 4%
- IC50 [21]: 5900 nM
- IC50 [3]: 1200 nM
- IC50 [22]: > 10000 nM
- Drug metabolism (Liver [23]): Metabolite_Notdetected
- Ratio IC50 (Homo sapiens [24]): 2.7 to 16
- Activity [25]: 7.1%
- Activity [4]: 2.8%
- Drug metabolism (Liver [26]): Metabolite_Detected
- Activity [27]: 40%
- PPB (Plasma [28]): Active
- Activity [5]: 3.1%
- IC50 [29]: 1000 nM
- Activity [7]: 37%
- Drug metabolism (Liver [30]): Metabolite_Detected
- PPB (Plasma [31]): Active
- IC50 [32]: 1400 nM
- IC50 ([9]; read-out: IC50): 440 nM
- IC50 ([9]; read-out: pIC50 (converted)): 427 nM
- Activity [10]: 2.9%
- Drug metabolism (Liver [33]): Metabolite_Detected
- Activity [11]: 4.3%
- Drug metabolism (Liver [34]): Metabolite_Detected
- Activity [35]: 4.8%
- Ratio IC50 (Homo sapiens [36]): 2.7 to 16
- Ratio IC50 [37]: 2.7 to 16
- IC50 [15]: 6500 nM
- Drug metabolism (Liver [38]): Metabolite_Detected
- Ratio IC50 (Homo sapiens [39]): 2.7 to 16
- Drug metabolism (Liver [40]): Metabolite_Detected
- Drug metabolism (Liver [41]): Metabolite_Notdetected
- Activity [42]: 2.6%
- Drug metabolism (Liver [43]): Metabolite_Detected
- IC50 [44]: > 10000 nM
- IC50 [18]: 7000 nM
- Drug metabolism (Liver [45]): Metabolite_Detected
- Drug metabolism (Liver [46]): Metabolite_Detected
- IC50 [20]: 1300 nM
